From patent publication US8859541B2, “6-alkynylpyridines” (Boehringer Ingelheim International GmbH, priority 2012, dated 2014)

Legend:
cIAP1 BIR3 = target: T1, cIAP1 BIR3 (Homo sapiens, UniProt Q13490); assay: cIAP1 BIR3 binding assay (DELFIA), displacement of SMAC peptide; conditions: GST-fusion BIR3 domain (aa 256 to 363) 10 nM, SMAC peptide 10 nM; activity of the (S)-isomers
T1 construct: covering amino acids 256 to 363; cIAP1 BIR3; made in house; host or cells: E. coli
Procedure: Biological Methods XIAP BIR3 and cIAP1 BIR3 Binding Assays (DELFIA)
Peptide […]-Lys(Biotin), representing the N-terminus of mature human SMAC (SMAC peptide), was used as interaction partner in the protein-peptide interaction assay.
BIR3 domains (10 nM) were incubated with SMAC peptide (10 nM) in Assay Buffer (50 mM Tris, 120 mM NaCl, 0.1% BSA, 1 mM DTT, 0.05% TritonX100) for one hour at room temperature in the presence of inhibitiory compounds. The assay mixture was transferred to a strepatvidin coated plate and incubated for one hour at room temperature to allow binding of the biotinylated peptide and associated BIR3 domains to the plate. After several washing steps Eu labeled anti-GST antibody (e.g. Perkin Elmer DELFIA Eu-N1-antiGST AD0250) was added to detect BIR3 domain-SMAC peptide interactions according to Perkin Elmer's instructions. […] Time resolved Europium fluoresecence was measured in a Wallac Victor using Standard assay settings.
DELFIA assay results were plotted against compound concentrations and Software GraphPad Prizm was used to calculate half maximal inhibitory concentrations (IC50 values).

XIAP BIR3 = target: T2, XIAP BIR3 (Homo sapiens, UniProt P98170); assay: XIAP BIR3 binding assay (DELFIA), displacement of SMAC peptide; conditions: GST-fusion BIR3 domain (aa 241 to 356) 10 nM, SMAC peptide 10 nM; activity of the (S)-isomers
T2 construct: covering amino acids 241 to 356; XIAP BIR3; made in house; host or cells: E. coli
T2 sequence (P98170 241-356): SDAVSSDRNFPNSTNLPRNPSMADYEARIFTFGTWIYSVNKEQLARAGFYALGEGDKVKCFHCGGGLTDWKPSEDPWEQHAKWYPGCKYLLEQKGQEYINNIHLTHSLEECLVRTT
Summary of the method: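 Each BIR3 domain (10 nM) incubated with biotinylated N-terminal SMAC peptide (10 nM) and compound for 1 h at room temp in Tris/NaCl buffer with BSA, DTT and Triton X-100. Captured on streptavidin plates; bound BIR3 detected by Eu-labelled anti-GST time-resolved fluorescence, giving IC50 values.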

T1 sequence (Q13490 256-363): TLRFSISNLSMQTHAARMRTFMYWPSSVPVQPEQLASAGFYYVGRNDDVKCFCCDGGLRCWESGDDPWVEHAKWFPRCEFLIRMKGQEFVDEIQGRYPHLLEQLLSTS

SMILES | IC50 (cIAP1 BIR3) [µM] | IC50 (XIAP BIR3) [µM]
CNC(C)C(=O)Nc1ccc(-c2cnc(N3CCN(C)CC3)nc2)c(C#Cc2ccccc2)n1 (centres unmarked) [Example 191, 2-(methylamino)-N-[5-[2-(4-methylpiperazin-1-yl)pyrimidin-5-yl]-6-(2-phenylethynyl)pyridin-2-yl]propanamide] | 0.022 | 0.102
CNC(C)C(=O)Nc1ccc(-c2c(C)nc3ccccn23)c(C#Cc2ccc3ncsc3c2)n1 (centres unmarked) [Example 42, N-[6-[2-(1,3-benzothiazol-6-yl)-ethynyl]-5-(2-methyl-imidazo[1,2-a]pyridin-3-yl)-pyridin-2-yl]-2-(methylamino)-propanamide] | 0.001 | 0.094
CNC(C)C(=O)Nc1ccc(-c2c(C)nc3ccccn23)c(C#Cc2cc3ccccc3o2)n1 (centres unmarked) [Example 70, N-[6-[2-(1-benzofuran-2-yl)-ethynyl]-5-(2-methyl-imidazo[1,2-a]pyridin-3-yl)-pyridin-2-yl]-2-(methylamino)-propanamide] | 0.001 | 0.066
CNC(C)C(=O)Nc1ccc(-c2c(-c3ccncc3)nc3cc(C)ccn23)c(C#Cc2ccc(-c3ccon3)cc2)n1 (centres unmarked) [Example 82, 2-(methylamino)-N-[5-(7-methyl-2-pyridin-4-ylimidazo[1,2-a]pyridin-3-yl)-6-[2-[4-(1,2-oxazol-3-yl)phenyl]-ethynyl]pyridin-2-yl]propan-amide] | 0.001 | 0.061
CNC(C)C(=O)Nc1ccc(-c2c(C)nc3ccccn23)c(C#Cc2ccc(-n3cncn3)cc2)n1 (centres unmarked) [Example 37, 2-(methylamino)-N-[5-(2-methylimidazo[1,2-a]pyridin-3-yl)-6-[2-[4-(1,2,4-triazol-1-yl)-phenyl]ethynyl]pyridin-2-yl]-propanamide] | 0.001 | 0.166
CNC(C)C(=O)Nc1ccc(-c2c(C)nc3ccccn23)c(C#Cc2nn(C)c3ncccc23)n1 (centres unmarked) [Example 58, 2-(methylamino)-N-[5-(2-methylimidazo[1,2-a]pyridin-3-yl)-6-[2-(1-methylpyrazolo[3,4-b]pyridin-3-yl)ethynyl]pyridin-2-yl]propanamide] | 0.005 | 0.224
CNC(C)C(=O)Nc1ccc(-c2c(-c3ccncc3)nc3cc(C)ccn23)c(C#Cc2ccccc2)n1 (centres unmarked) [Example 185, 2-(methylamino)-N-[5-(7-methyl-2-pyridin-4-ylimidazo[1,2-a]-pyridin-3-yl)-6-(2-phenyl-ethynyl)pyridin-2-yl]propanamide] | 0.001 | 0.016
CNC(C)C(=O)Nc1ccc(-c2c(C)nc3ccccn23)c(C#Cc2cnc3ccccn23)n1 (centres unmarked) [Example 60, N-[6-(2-imidazo[1,2-a]pyridin-3-ylethynyl)-5-(2-methyl-imidazo[1,2-a]pyridin-3-yl)-pyridin-2-yl]-2-(methylamino)-propanamide] | 0.002 | 0.184
CNC(C)C(=O)Nc1cc(C(F)(F)F)cc(C#Cc2ccccc2)n1 (centres unmarked) [Example 198, 2-(methylamino)-N-[6-(2-phenylethynyl)-4-(trifluoromethyl)pyridin-2-yl]propanamide] | 4.93 | 10.5
CNC(C)C(=O)Nc1ccc(-c2c(C)nc(N3CCOCC3)nc2C)c(C#Cc2ccc3c(ccc(=O)n3C)c2)n1 (centres unmarked) [Example 35, N-[5-(4,6-dimethyl-2-morpholin-4-ylpyrimidin-5-yl)-6-[2-(1-methyl-2-oxoquinolin-6-yl)ethynyl]pyridin-2-yl]-2-(methylamino)propanamide] | 0.001 | 1.48
CNC(C)C(=O)Nc1ccc(-c2c(C)nc3ccccn23)c(C#Cc2nn(C)c3ccccc23)n1 (centres unmarked) [Example 61, 2-(methylamino)-N-[5-(2-methylimidazo[1,2-a]pyridin-3-yl)-6-[2-(1-methylindazol-3-yl)-ethynyl]pyridin-2-yl]propan-amide] | 0.005 | 0.187
CNC(C)C(=O)Nc1ccc(-c2c(-c3ccncc3)nc3cc(C)ccn23)c(C#Cc2ccc3nccn3c2)n1 (centres unmarked) [Example 95, N-[6-(2-imidazo[1,2-a]pyridin-6-ylethynyl)-5-(7-methyl-2-pyridin-4-ylimidazo[1,2-a]-pyridin-3-yl)pyridin-2-yl]-2-(methylamino)propanamide] | 0.001 | 0.097
CC(N)C(=O)Nc1cc2ccccc2c(C#Cc2ccsc2)n1 (centres unmarked) [Example 203, 2-amino-N-[1-(2-thiophen-3-ylethynyl)isoquinolin-3-yl]propanamide] | 0.251 | 0.76
CNC(C)C(=O)Nc1ccc(-c2ccc(C)nc2)c(C#Cc2ccccc2)n1 (centres unmarked) [Example 147, 2-(methylamino)-N-[5-(6-methylpyridin-3-yl)-6-(2-phenyl-ethynyl)pyridin-2-yl]propanamide] | 0.032 | 0.125
CNC(C)C(=O)Nc1ccc(-c2cc(C(=O)OC)cc(C(=O)OC)c2)c(C#Cc2ccccc2)n1 (centres unmarked) [Example 176, dimethyl 5-[6-[[2-(methylamino)-propanoyl]amino]-2-(2-phenyl-ethynyl)pyridin-3-yl]benzene-1,3-dicarboxylate] | 0.023 | 0.05
CNC(C)C(=O)Nc1ccc(-c2cncc(-c3ccccc3)c2)c(C#Cc2ccccc2)n1 (centres unmarked) [Example 149, 2-(methylamino)-N-[6-(2-phenyl-ethynyl)-5-(5-phenylpyridin-3-yl)pyridin-2-yl]propanamide] | 0.08 | 0.195
Cc1ccccc1-c1ccc(NC(=O)C(C)N)nc1C#Cc1ccccc1 (centres unmarked) [Example 108, 2-amino-N-[5-(2-methylphenyl)-6-(2-phenylethynyl)pyridin-2-yl]-propanamide] | 0.175 | 1.61
CC(N)C(=O)Nc1cccc(C#Cc2cccc(C(=O)N3CCOCC3)c2)n1 (centres unmarked) [Example 213, 2-amino-N-[6-[2-[3-(morpholine-4-carbonyl)-phenyl]ethynyl]pyridin-2-yl]propanamide] | 2.12 | 9.95
CNC(C)C(=O)Nc1ccc(-c2c(-c3ccncc3)nc3cc(C)ccn23)c(C#Cc2ccc(Cl)c(Cl)c2)n1 (centres unmarked) [Example 39, N-[6-[2-(3,4-dichlorophenyl)-ethynyl)-5-(7-methyl-2-pyridin-4-ylimidazo[1,2-a]pyridin-3-yl)-pyridin-2-yl]-2-(methylamino)-propanamide] | 0.001 | 0.087
CNC(C)C(=O)Nc1ccc(-c2c(C)ncnc2C)c(C#Cc2ccc3cnccc3c2)n1 (centres unmarked) [Example 45, N-[5-(4,6-dimethylpyrimidin-5-yl)-6-(2-isoquinolin-6-yl-ethynyl)pyridin-2-yl]-2-(methyl-amino)propanamide] | 0.002 | 0.431
CNC(C)C(=O)Nc1ccc(-c2c(C)nc3ccccn23)c(C#Cc2ccc(-c3cccnc3)cc2)n1 (centres unmarked) [Example 36, 2-(methylamino)-N-[5-(2-methylimidazo[1,2-a]pyridin-3-yl)-6-[2-(4-pyridin-3-ylphenyl)-ethynyl]pyridin-2-yl]propan-amide] | 0.001 | 0.112
CC(N)C(=O)Nc1cc2ccccc2c(C#Cc2cccs2)n1 (centres unmarked) [Example 208, 2-amino-N-[1-(2-thiophen-2-ylethynyl)isoquinolin-3-yl]-propanamide] | 0.255 | 0.467
CNC(C)C(=O)Nc1ccc(-c2c(C)nc3ccccn23)c(C#Cc2ccc3oc(=O)n(C)c3c2)n1 (centres unmarked) [Example 74, 2-(methylamino)-N-[5-(2-methylimidazo[1,2-a]pyridin-3-yl)-6-[2-(3-methyl-2-oxo-1,3-benzoxazol-5-yl)ethynyl]-pyridin-2-yl]propanamide] | 0.001 | 0.175
CNC(C)C(=O)Nc1ccc(-c2ccc3c(c2)C(=O)c2ccccc2-3)c(C#Cc2ccccc2)n1 (centres unmarked) [Example 177, 2-(methylamino)-N-[5-(9-oxofluoren-2-yl)-6-(2-phenyl-ethynyl)pyridin-2-yl]propanamide] | 0.092 | 0.337
CNC(C)C(=O)Nc1ccc(-c2c(C)nc3ccccn23)c(C#Cc2ccc3ncccc3c2)n1 (centres unmarked) [Example 28, 2-(methylamino)-N-[5-(2-methylimidazo[1,2-a]pyridin-3-yl)-6-(2-quinolin-6-ylethynyl)-pyridin-2-yl]propanamide] | 0.001 | 0.2
Cc1ccccc1C#Cc1cccc(NC(=O)C(C)N)n1 (centres unmarked) [Example 232, 2-amino-N-[6-[2-(2-methylphenyl)ethynyl]pyridin-2-yl]propanamide] | 0.672 | 1.25
CNC(C)C(=O)Nc1ccc(-c2cncc(Cl)c2)c(C#Cc2ccccc2)n1 (centres unmarked) [Example 122, N-[5-(5-chloropyridin-3-yl)-6-(2-phenylethynyl)pyridin-2-yl]-2-(methylamino)propanamide] | 0.023 | 0.148
CNC(C)C(=O)Nc1ccc(-c2c(C)nc3ccccn23)c(C#Cc2ccc3nn(C)cc3c2)n1 (centres unmarked) [Example 72, 2-(methylamino)-N-[5-(2-methylimidazo[1,2-a]pyridin-3-yl)-6-[2-(2-methylindazol-5-yl)-ethynyl]pyridin-2-yl]propan-amide] | 0.001 | 0.145
